Format in all cases: in vivo
For experiment [1], the system named is Beet Armyworm (Spodoptera exigua). As to the kind of experiment: Bioassay on Beet Armyworm (BAW), 128-well diet tray assay. Particulars: Beet Armyworm, Table ABC, read-out: BAW rating. In a few lines: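 Second-instar larvae (one to five per well) placed on artificial diet surface-treated with 50 μg/cm^2 test molecule in 90:10 acetone-water, dried, eight wells per molecule. Held at 25° C, 14:10 light-dark, five to seven days; percent mortality recorded per well and averaged across the eight wells.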

The test system of experiment [2] is Cabbage Looper (Trichoplusia ni). As to the kind of experiment: Bioassay on Cabbage Looper (CL), 128-well diet tray assay. Particulars: Cabbage Looper, Table ABC, read-out: CL rating. In a few lines: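 Second-instar larvae, one to five per well, placed on artificial diet surface-treated with 50 μg/cm^2 compound in acetone-water, eight wells per compound. Held 5-7 days at 25° C, 14:10 light-dark; percent mortality per well averaged across wells.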

The subject of experiment [3] is Yellow Fever Mosquito (Aedes aegypti). Nature of the experiment: Bioassay on Yellow Fever Mosquito (YFM) larvae, 96-well plate. Particulars: Table ABC. In a few lines:
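About 1-day-old larvae in water with liver powder were added to wells holding compound from a 4000 ppm DMSO master diluted in 90:10 water:acetone. Plates covered and kept at room temperature for 3 days, then each well scored for mortality on a rating scale.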

Each structure is given as a SMILES string.

For the compound `C[C@@H](NC(=O)c1ccc(/C(F)=C/C(c2cc(Cl)c(F)c(Cl)c2)C(F)(F)F)cc1C(F)(F)F)C(=O)N(C)CC(F)(F)F` (stereo partly drawn) [F81, 4-((Z)-3-(3,5-Dichloro-4-fluorophenyl)-1,4,4,4-tetrafluorobut-1-en-1-yl)-N—((R)-1-(methyl(2,2,2-trifluoroethyl)amino)-1-oxopropan-2-yl)-2-(trifluoromethyl)benzamide], the pest or weed control at 50 µg/cm2 in experiment [1] and in experiment [2] was 50 to 100% each time. Also, the YFM rating entry in experiment [3] was “A (80-100)”.
As for `CN(CC(F)(F)F)C(=O)CNC(=O)c1ccc(/C(F)=C/C(c2cc(Cl)c(F)c(Cl)c2)C(F)(F)F)cc1C(F)(F)F` (stereo not drawn) [F82, (Z)-4-(3-(3,5-Dichloro-4-fluorophenyl)-1,4,4,4-tetrafluorobut-1-en-1-yl)-N-(2-(methyl(2,2,2-trifluoroethyl)amino)-2-oxoethyl)-2-(trifluoromethyl)benzamide], the pest or weed control at 50 µg/cm2 in experiment [1] and in experiment [2] was 50 to 100% in each case. In experiment [3], the YFM rating entry is recorded as “A (80-100)”.
Regarding `C[C@@H](NC(=O)c1ccc(/C(F)=C/C(c2cc(Br)cc(Br)c2)C(F)(F)F)cc1C(F)(F)F)C(=O)N(C)CC(F)(F)F` (stereo partly drawn) [F83, 4-((Z)-3-(3,5-Dibromophenyl)-1,4,4,4-tetrafluorobut-1-en-1-yl)-N—((R)-1-(methyl(2,2,2-trifluoroethyl)amino)-1-oxopropan-2-yl)-2-(trifluoromethyl)benzamide], the pest or weed control at 50 µg/cm2 in experiment [1] and in experiment [2] was 50 to 100% in each case. The YFM rating entry in experiment [3] was “A (80-100)”.
As for `CN(CC(F)(F)F)C(=O)CNC(=O)c1ccc(/C(F)=C/C(c2cc(Br)cc(Br)c2)C(F)(F)F)cc1C(F)(F)F` (stereo not drawn) [F84, (Z)-4-(3-(3,5-Dibromophenyl)-1,4,4,4-tetrafluorobut-1-en-1-yl)-N-(2-(methyl(2,2,2-trifluoroethyl)amino)-2-oxoethyl)-2-(trifluoromethyl)benzamide], the pest or weed control at 50 µg/cm2 in experiment [1] and in experiment [2] was 50 to 100% throughout. For the same compound, the YFM rating entry in experiment [3] is on record as “A (80-100)”.
For `C=Cc1c(Cl)cc(C(/C=C(\F)c2ccc(C(=O)NCC(=O)N(C)CC(F)(F)F)c(C(F)(F)F)c2)C(F)(F)F)cc1Cl` (stereo not drawn) [F85, (Z)-4-(3-(3,5-Dichloro-4-vinylphenyl)-1,4,4,4-tetrafluorobut-1-en-1-yl)-N-(2-(methyl(2,2,2-trifluoroethyl)amino)-2-oxoethyl)-2-(trifluoromethyl)benzamide], the pest or weed control at 50 µg/cm2 in experiment [1] and in experiment [2] was 50 to 100% throughout. Besides, the YFM rating entry in experiment [3] is on record as “A (80-100)”.
As for `C=Cc1c(Cl)cc(C(/C=C(\F)c2ccc(C(=O)N[C@H](C)C(=O)N(C)CC(F)(F)F)c(C(F)(F)F)c2)C(F)(F)F)cc1Cl` (stereo partly drawn) [F86, 4-((Z)-3-(3,5-Dichloro-4-vinylphenyl)-1,4,4,4-tetrafluorobut-1-en-1-yl)-N—((R)-1-(methyl(2,2,2-trifluoroethyl)amino)-1-oxopropan-2-yl)-2-(trifluoromethyl)benzamide], the pest or weed control at 50 µg/cm2 in experiment [1] and in experiment [2] was 50 to 100% in each case. The YFM rating result in experiment [3] is “A (80-100)”.
Turning to `CN(CC(F)(F)F)C(=O)CN(C)C(=O)c1ccc(/C(F)=C/C(c2cc(Cl)c(Cl)c(Cl)c2)C(F)(F)F)cc1C(F)(F)F` (stereo not drawn) [F99, (Z)—N-Methyl-N-(2-(methyl(2,2,2-trifluoroethyl)amino)-2-oxoethyl)-4-(1,4,4,4-tetrafluoro-3-(3,4,5-trichlorophenyl)but-1-en-1-yl)-2-(trifluoromethyl)benzamide], the pest or weed control at 50 µg/cm2 in experiment [1] and in experiment [2] was 50 to 100% throughout. Also, the YFM rating entry in experiment [3] was “A (80-100)”.
For `Cc1cc(C(/C=C(\F)c2ccc(C(=O)N[C@H](C)C(=O)N(C)CC(F)(F)F)c(C(F)(F)F)c2)C(F)(F)F)cc(C)c1Cl` (stereo partly drawn) [F102, 4-((Z)-3-(4-Chloro-3,5-dimethylphenyl)-1,4,4,4-tetrafluorobut-1-en-1-yl)-N—((R)-1-(methyl(2,2,2-trifluoroethyl)amino)-1-oxopropan-2-yl)-2-(trifluoromethyl)benzamide], the pest or weed control at 50 µg/cm2 in experiment [1] and in experiment [2] was 50 to 100% throughout. Besides, in experiment [3], the YFM rating result was “A (80-100)”.
In the case of `Cc1cc(C(/C=C(\F)c2ccc(C(=O)NCC(=O)N(C)CC(F)(F)F)c(C(F)(F)F)c2)C(F)(F)F)cc(C)c1Cl` (stereo not drawn) [F103, (Z)-4-(3-(4-Chloro-3,5-dimethylphenyl)-1,4,4,4-tetrafluorobut-1-en-1-yl)-N-(2-(methyl(2,2,2-trifluoroethyl)amino)-2-oxoethyl)-2-(trifluoromethyl)benzamide], the pest or weed control at 50 µg/cm2 in experiment [1] and in experiment [2] was 50 to 100% in each case. Also, in experiment [3], the YFM rating result was “B (More than 0-Less than 80)”.
Take `C=Cc1c(Cl)cc(C(/C=C(\F)c2ccc(C(=O)NC3(C(=O)NCC(F)(F)F)CC3)c(C(F)(F)F)c2)C(F)(F)F)cc1Cl` (stereo not drawn) [F113, (Z)-4-(3-(3,5-Dichloro-4-vinylphenyl)-1,4,4,4-tetrafluorobut-1-en-1-yl)-N-(1-((2,2,2-trifluoroethyl)carbamoyl)cyclopropyl)-2-(trifluoromethyl)benzamide]: the pest or weed control at 50 µg/cm2 in experiment [1] and in experiment [2] was 50 to 100% each time. Besides, the YFM rating result in experiment [3] was “A (80-100)”.
On to `CN(CC(F)(F)F)C(=O)C1(NC(=O)c2ccc(/C(F)=C/C(c3cc(Cl)c(F)c(Cl)c3)C(F)(F)F)cc2C(F)(F)F)CC1` (stereo not drawn) [F114, (Z)-4-(3-(3,5-Dichloro-4-fluorophenyl)-1,4,4,4-tetrafluorobut-1-en-1-yl)-N-(1-(methyl(2,2,2-trifluoroethyl)carbamoyl)cyclopropyl)-2-(trifluoromethyl)benzamide], for which the pest or weed control at 50 µg/cm2 in experiment [1] and in experiment [2] was 50 to 100% each time. For the same compound, in experiment [3], the YFM rating result is listed as “A (80-100)”.
With `CN(CC(F)(F)F)C(=O)C1(NC(=O)c2ccc(/C(F)=C/C(c3cc(Cl)cc(Cl)c3)C(F)(F)F)cc2C(F)(F)F)CC1` (stereo not drawn) [F115, (Z)-4-(3-(3,5-Dichlorophenyl)-1,4,4,4-tetrafluorobut-1-en-1-yl)-N-(1-(methyl(2,2,2-trifluoroethyl)carbamoyl)cyclopropyl)-2-(trifluoromethyl)benzamide], the pest or weed control at 50 µg/cm2 in experiment [1] and in experiment [2] was 50 to 100% in each case. Moreover, the YFM rating result in experiment [3] was “B (More than 0-Less than 80)”.
Turning to `O=C(NC1(C(=O)NCC(F)(F)F)CC1)c1ccc(/C(F)=C/C(c2cc(Cl)cc(Br)c2)C(F)(F)F)cc1C(F)(F)F` (stereo not drawn) [F116, (Z)-4-(3-(3-Bromo-5-chlorophenyl)-1,4,4,4-tetrafluorobut-1-en-1-yl)-N-(1-((2,2,2-trifluoroethyl)carbamoyl)cyclopropyl)-2-(trifluoromethyl)benzamide], the pest or weed control at 50 µg/cm2 in experiment [1] and in experiment [2] was 50 to 100% throughout. Moreover, in experiment [3], the YFM rating entry is “A (80-100)”.
For the compound `CN(CC(F)(F)F)C(=O)C1(NC(=O)c2ccc(/C(F)=C/C(c3cc(Br)c(Cl)c(Br)c3)C(F)(F)F)cc2C(F)(F)F)CC1` (stereo not drawn) [F118, (Z)-4-(3-(4-Dibromo-4-chlorophenyl)-1,4,4,4-tetrafluorobut-1-en-1-yl)-N-(1-(methyl(2,2,2-trifluoroethyl)carbamoyl)cyclopropyl)-2-(trifluoromethyl)benzamide], the pest or weed control at 50 µg/cm2 in experiment [1] and in experiment [2] was 50 to 100% in each case. Moreover, the YFM rating result in experiment [3] is given as “B (More than 0-Less than 80)”.

For the origin of these results see patent US10251394B2, “Molecules having pesticidal utility, and intermediates, compositions, and processes, related thereto” (Dow AgroSciences LLC, priority 2016, dated 2019).
